Results: patent publication US10022341B2, “Methods of preventing neurodegeneration of association cortex in a mammal” (YALE UNIVERSITY, priority 2014, dated 2018)
Entries after “also recorded” stand apart in the source; their conditions may differ.

Tests used:
[1] = tested on: phospho-COXIV-1 (p-S58) in aged monkey dlPFC; experiment: Immunoblot of phospho-COXIV-1 (p-S58) in dlPFC after chronic daily treatment; assay type: in vivo; conditions: 0.001-0.1 mg/kg daily for 6 mos, n=1, pilot study
Description: FIG. 19 is a set of immunoblots and a bar graph illustrating that chronic daily treatment with the α2A-AR agonist, guanfacine, reduces abnormal phosphorylation of COXIV in the aged monkey dlPFC.
All samples were run on Invitrogen Novex 4-12% Tris-glycine gels using the Biorad Western blotting system. Lanes were transferred onto […] Nitrocellulose (Biorad) and incubated overnight in primary antibodies: anti PDE4A (Abcam, ab14607; 1:1000), anti-GAPDH (Advanced Immunochemical, mAb 6C5; 1:5000), anti-PDE4B (Pearson et al., 1985, Proc. Natl. Acad. Sci. USA 82:4531), anti-β-tubulin (T2200, Sigma; 1:5000), anti-PSD95 (EMD Millipore, mAb N68; 1:5000), anti-pSer214 (EMD Millipore, AB6972; 1:1000) for all experiments, except the primary culture experiment, where Abcam 4846 was used due to discontinuation of the previous antibody, anti-pThr231 (Pierce, OPA1-031556; 1:1000), anti-tau (clone 5E2, EMD Millipore, 05-348; 1:500-1:1000). Primary antibodies were labeled using the appropriate Licor IRDye 680 or 800 secondary antibody, and visualized using a Licor Odyssey Infra Red Scanner. Bands were quantified using Odyssey Software, and statistics performed by Student's T-test, unless stated otherwise.

[2] = tested on: p-S214 tau in aged monkey dlPFC; experiment: Immunoblot of p-S214 tau in dlPFC after chronic daily treatment; assay type: in vivo; conditions: 0.001-0.1 mg/kg daily for 6 mos, n=1, pilot study
Description: FIG. 18 is a set of immunoblots and a graph illustrating the finding that chronic daily treatment with the α2A-AR agonist, guanfacine, reduces abnormal phosphorylation of tau in the aged monkey dlPFC.
Heat-stable tau was prepared as detailed in Bussière et al., 2003, J Comp Neurol. 463:281. Small blocks of dlPFC were surgically removed and flash-frozen before perfusion of subjects. A piece was placed into ice-cold homogenization buffer (10 mM Tris pH 7.4, 140 mM NaCl, 2 mM EGTA, plus protease and phosphatase inhibitors; 400 μL per 100 mg tissue) and homogenized by sonication. A small fraction was reserved for protein quantification for gel loading. NaCl was added to 250 mM, followed by addition of β-mercaptoethanol (14.3 M, Sigma) to 5% total volume. Samples were vortexed and heated to 100° C. for 15 min, vortexed, then cooled on ice for 30 min. Lysates were cleared by centrifugation at 16,100×g for 10 min at 4° C., and the supernatant used for immunoblotting. Band intensities were normalized by total heat-stable protein, quantified by measurement of major band intensities on a Coomassie stained gel (FIG. 5C).
All samples were run on Invitrogen Novex 4-12% Tris-glycine gels using the Biorad Western blotting system. […] Bands were quantified using Odyssey Software, and statistics performed by Student's T-test, unless stated otherwise.

[3] = humans; cited from earlier work
[4] = tested on: aged monkeys (18-28 yrs); experiment: Working memory performance after chronic daily treatment; assay type: in vivo, monkey
[5] = tested on: pS214-tau in mouse primary cortical neurons; experiment: pSer214 phosphorylation assay in cultured neurons (immunoblot); assay type: cell-based
Description: FIG. 15 is a series of immunoblots illustrating the effect of PDE4 inhibition on phosphorylation of tau at Serine 214. Mouse primary cortical neurons between 7-11 days in vitro were preincubated with 10 μM rolipram or vehicle for 10 min, before being subjected to treatment with varying nM concentrations of forskolin (as indicated). Following this treatment, cells were lysed in 1% SDS with protease and phosphatase inhibitors (Complete Mini, Roche and PhosStop, Roche), and heated to 70° C. to prevent further phosphatase activity. Samples were quantified by BCA assay, and analyzed by imunoblotting. Blots were labeled for pSer214-tau (Abcam, 4846), total tau (EMD Millipore, clone 5E2) and GAPDH (Advanced Immunochemical, mAb 6C5). Bands were quantified using Image J, and total tau signals were normalized by GAPDH. p-Tau signals were then normalized to total tau signals.
Primary cortical neurons were prepared from P1 C57Bl/6 mice. One day prior to neuron production, plates were coated overnight with Poly-D-Lysine solution (Sigma). […]
Assays were performed on primary cortical neurons between 7-11 days in vitro. […] Samples were quantified by BCA assay, and analyzed by immunoblotting. In this instance, band intensity was quantified using ImageJ, and significance assessed by 2 way ANOVA using Graph Pad Prism software.

Row | Structure (SMILES) | phospho-COXIV-1 (p-S58) expression in dlPFC compared to chronic vehicle [1] | p-S214 tau expression in dlPFC compared to chronic vehicle [2] | safety of long-term treatment [3] | working memory / cognitive performance compared to baseline ([4]; 0.001 or 0.01 mg/kg daily for 6 months, n=4 or 5) | working memory / cognitive performance compared to baseline ([4]; highest dose 0.1 mg/kg daily for 6 months, 0.1 mg/kg) | forskolin-induced increase in pS214-tau ([5]; 10 μM with forskolin, F(1,60)=8.882, p=0.0042) | pS214-tau level ([5]; PDE4 inhibition, FIG. 3G)
1 | NC(N)=NC(=O)Cc1c(Cl)cccc1Cl [guanfacine, N-(diaminomethylidene)-2-(2,6-dichlorophenyl)acetamide] | reduces the expression of p-tau and phospho-COXIV-1; also recorded: decreasing phospho-COXIV-1; also recorded: decreased phospho-COXIV-1 expression | reduces the expression of p-tau; also recorded: dose-related reduction in phosphorylated tau at the pS214 site; also recorded: dose-related reduction in p-S214 expression | proven safe for long-term treatment | enhances cognitive performance; also recorded: significantly improved working memory performance | produced improvement in some monkeys but not in others; also recorded: highly variable and thus not significant | – | –
2 | COc1ccc(C2CNC(=O)C2)cc1OC1CCCC1 (stereo not shown) [rolipram] | – | – | – | – | – | significantly increased | increased pS214-tau
